Bounds are passed on as bounds.

In this assay the target is T1, BTK (Homo sapiens, UniProt Q06187).
T1 construct: purified from insect cells as a full-length construct containing a N-terminal 6×-His tag; His6 (N); made in house; host or cells: insect cells (baculovirus, Sf21)
T1 sequence (Q06187 whole entry): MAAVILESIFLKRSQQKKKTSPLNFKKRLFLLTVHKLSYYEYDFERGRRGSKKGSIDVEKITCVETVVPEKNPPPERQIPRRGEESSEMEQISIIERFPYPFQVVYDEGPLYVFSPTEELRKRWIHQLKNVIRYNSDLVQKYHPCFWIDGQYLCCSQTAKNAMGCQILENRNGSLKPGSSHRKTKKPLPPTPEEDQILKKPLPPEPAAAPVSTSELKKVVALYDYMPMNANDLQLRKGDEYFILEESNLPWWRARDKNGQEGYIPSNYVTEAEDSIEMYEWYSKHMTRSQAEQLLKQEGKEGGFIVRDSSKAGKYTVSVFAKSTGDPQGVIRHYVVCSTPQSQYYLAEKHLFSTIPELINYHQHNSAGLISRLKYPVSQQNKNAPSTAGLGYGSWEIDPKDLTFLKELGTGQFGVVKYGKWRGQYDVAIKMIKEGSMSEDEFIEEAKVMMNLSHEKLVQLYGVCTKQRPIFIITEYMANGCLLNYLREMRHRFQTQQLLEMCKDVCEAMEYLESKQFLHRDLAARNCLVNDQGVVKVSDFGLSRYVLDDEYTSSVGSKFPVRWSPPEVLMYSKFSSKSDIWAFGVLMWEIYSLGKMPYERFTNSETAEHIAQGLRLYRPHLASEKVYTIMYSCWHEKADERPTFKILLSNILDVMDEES
The assay is described as follows: Btk in vitro inhibitory activity (TR-FRET, mobility shift or radiometric filter binding kinase assay). Conditions: determined using one of the methods outlined in Example 47a, 47b, and 47c. It is filed as biochemical. How it is done: Btk kinase activity is determined using a time-resolved fluorescence resonance energy transfer (TR-FRET) methodology. Measurements are performed in a reaction volume of 50 μL using 96-well assay plates. […] The reaction is quenched by the addition of 1.2 equivalents of EDTA (relative to divalent cation) in 25 μL of 1× Lance buffer (Perkin-Elmer). Streptavidin-APC (Perkin-Elmer) and Eu-labeled p-Tyr100 antibody (Perkin-Elmer) in 1× Lance buffer are added in a 25 μL volume to give final concentrations of 100 nM and 2.5 nM, respectively, and the mixture is allowed to incubate for one hour. The TR-FRET signal is measured on a multimode plate reader with an excitation wavelength (λEx) of 330 nm and detection wavelengths (λEm) of 615 and 665 nm. Activity is determined by the ratio of the fluorescence at 665 nm to that at 615 nm. For each compound, enzyme activity is measured at various concentrations of compound. Negative control reactions are performed in the absence of inhibitor in replicates of six, and two no-enzyme controls are used to determine baseline fluorescence levels. Inhibition constants, Ki(app), ware obtained using the program BatchKi (Kuzmic et al. (2000), Anal. Biochem. 286:45-50). IC50s are obtained according to the equation: IC50={Ki(app)/(1+[ATP]/Km^ATP)}+[E]total/2;
For all kinases, [ATP]=Km^ATP, [Btk]total=0.5 nM and [Lck]total=6 nM.
Kinase activity is measured in vitro using electrophoretic mobility shift assay. The kinase reactions are assembled in a total volume of 25 μL in 384 well plates. […] The reaction is incubated for one hour and is quenched by the addition of 45 μL of termination buffer (100 mM HEPES, pH7.5, 0.01% Triton X-100, 30 mM EDTA). The terminated reactions are analyzed using 12 channel LabChip® 3000 microfluidic detection instrument (Caliper Life Sciences). The enzymatic phosphorylation of the peptide results in a change in net charge, enabling electrophoretic separation of product from substrate peptide. As substrate and product peptides are separated, two peaks of fluorescence are observed. Change in the relative fluorescence intensity of the substrate and product peaks is the parameter measured, reflecting enzyme activity. In the presence of an inhibitor, the ratio between product and substrate is altered: the signal of the product decreases, while the signal of the substrate increases.
Activity in each sample is determined as the product to sum ratio (PSR): P/(S+P), where P is the peak height of the product peptide and S is the peak height of the substrate peptide. For each compound, enzyme activity is measured at various concentrations (12 concentrations of compound spaced by 3× dilution intervals). Negative control samples (0%-inhibition in the absence of inhibitor) and positive control samples (100%-inhibition, in the presence of 20 mM EDTA) are assembled in replicates of four and are used to calculate %-inhibition values for each inhibitor at each concentration. Percent inhibition (Pinh) is determined using following equation: Pinh=(PSR0%−PSRinh)/(PSR0%−PSR100%)*100,
where PSRmh is the product sum ratio in the presence of inhibitor, PSR0% is the average product sum ration in the absence of inhibitor and PSR100% is the average product sum ratio in 100%-inhibition control samples;
The IC50 values of inhibitors are determined by 4 parameter sigmoidal dose-response model fitting of the inhibition curves (Pinh versus inhibitor concentration) using XLfit 4 software.
Human Btk kinase (Genbank accession # NP_000052) was purified from insect cells as a full-length construct containing a N-terminal 6×-His tag. Btk kinase activity was determined using a radiometric filter binding assay. Measurements are performed in a low μL reaction volume 384-well assay plates. […]
In general terms: Time-resolved FRET reads energy transfer from a long-lived donor to a nearby acceptor.
As to `CN(C)C/C=C/C(=O)N1CCC[C@@H](n2nc(-c3ccc(C(=O)Nc4ccccn4)cc3)c3c(N)ncnc32)C1` [Example 40, (R,E)-4-(4-amino-1-(1-(4-(dimethylamino)but-2-enoyl)piperidin-3-yl)-1H-pyrazolo[3,4-d]pyrimidin-3-yl)-N-(pyridin-2-yl)benzamide], the IC50 was < 1 nM. With `CN(C/C=C/C(=O)N1CCC[C@@H](n2nc(-c3ccc(C(=O)Nc4ccccn4)cc3)c3c(N)ncnc32)C1)C1CC1` [Example 34, (R,E)-4-(4-amino-1-(1-(4-(cyclopropyl(methyl)amino)but-2-enoyl)piperidin-3-yl)-1H-pyrazolo[3,4-d]pyrimidin-3-yl)-N-(pyridin-2-yl)benzamide], the IC50 is < 100 nM. Then `CN(C/C=C/C(=O)N1CCC[C@@H](n2nc(-c3ccc(C(=O)Nc4cc(C#N)ccn4)cc3)c3c(N)ncnc32)C1)C1CC1` [Example 38, (R,E)-4-(4-amino-1-(1-(4-(cyclopropyl(methyl)amino)but-2-enoyl)piperidin-3-yl)-1H-pyrazolo[3,4-d]pyrimidin-3-yl)-N-(4-cyanopyridin-2-yl)benzamide], with < 1 nM; and `CCCc1ccnc(NC(=O)c2ccc(-c3nn([C@@H]4CCCN(C(=O)/C=C/CN(C)C5CC5)C4)c4ncnc(N)c34)cc2)c1` [Example 37, (R,E)-4-(4-amino-1-(1-(4-(cyclopropyl(methyl)amino)but-2-enoyl)piperidin-3-yl)-1H-pyrazolo[3,4-d]pyrimidin-3-yl)-N-(4-propylpyridin-2-yl)benzamide], with < 1 nM; and `CCCc1ccnc(NC(=O)c2ccc(-c3nn([C@@H]4CCCN(C(=O)/C=C/CN(C)C)C4)c4ncnc(N)c34)cc2)c1` [Example 43, (R,E)-4-(4-amino-1-(1-(4-(dimethylamino)but-2-enoyl)piperidin-3-yl)-1H-pyrazolo[3,4-d]pyrimidin-3-yl)-N-(4-propylpyridin-2-yl)benzamide], with < 1 nM.

Turning to `CN(C)C/C=C/C(=O)N1CCC[C@@H](n2nc(-c3ccc(C(=O)Nc4cc(C(F)(F)F)ccn4)cc3)c3c(N)ncnc32)C1` [Example 42, (R,E)-4-(4-amino-1-(1-(4-(dimethylamino)but-2-enoyl)piperidin-3-yl)-1H-pyrazolo[3,4-d]pyrimidin-3-yl)-N-(4-(trifluoromethyl)pyridin-2-yl)benzamide], the concentration for half-maximal inhibition (IC50) is < 1 nM. With `CN(C)C/C=C/C(=O)N1CCC[C@@H](n2nc(-c3ccc(C(=O)Nc4cc(C#N)ccn4)cc3)c3c(N)ncnc32)C1` [Example 45, (R,E)-4-(4-amino-1-(1-(4-(dimethylamino)but-2-enoyl)piperidin-3-yl)-1H-pyrazolo[3,4-d]pyrimidin-3-yl)-N-(4-cyanopyridin-2-yl)benzamide], the IC50 is < 1 nM. The value for `Cc1ccnc(NC(=O)c2ccc(-c3nn([C@@H]4CCCN(C(=O)/C=C/CN(C)C5CC5)C4)c4ncnc(N)c34)cc2)c1` [Example 35, (R,E)-4-(4-amino-1-(1-(4-(cyclopropyl(methyl)amino)but-2-enoyl)piperidin-3-yl)-1H-pyrazolo[3,4-d]pyrimidin-3-yl)-N-(4-methylpyridin-2-yl)benzamide] was < 1 nM. The value for `CN(C/C=C/C(=O)N1CCC[C@@H](n2nc(-c3ccc(C(=O)Nc4cc(C(F)(F)F)ccn4)cc3)c3c(N)ncnc32)C1)C1CC1` [Example 36, (R,E)-4-(4-amino-1-(1-(4-(cyclopropyl(methyl)amino)but-2-enoyl)piperidin-3-yl)-1H-pyrazolo[3,4-d]pyrimidin-3-yl)-N-(4-(trifluoromethyl)pyridin-2-yl)benzamide] was < 1 nM.

Consider `CC(C)c1ccnc(NC(=O)c2ccc(-c3nn([C@@H]4CCCN(C(=O)/C=C/CN(C)C5CC5)C4)c4ncnc(N)c34)cc2)c1` [Example 39, (R,E)-4-(4-amino-1-(1-(4-(cyclopropyl(methyl)amino)but-2-enoyl)piperidin-3-yl)-1H-pyrazolo[3,4-d]pyrimidin-3-yl)-N-(4-isopropylpyridin-2-yl)benzamide], for which the IC50 was < 100 nM.

In general, IC50 refers to the midpoint of a concentration-inhibition curve.

(Values after patent US9624224B2, “Inhibitors of Bruton's tyrosine kinase” (Pharmacyclics LLC, priority 2013, dated 2017).)
